Experiments:
Assay type in all cases: cell-based
[1] = system: Escherichia coli ATCC 8739, Pseudomonas aeruginosa ATCC 9027, Staphylococcus aureus ATCC 6538, Candida albicans ATCC 10231, Aspergillus brasiliensis ATCC 16404; experiment: five-species minimum inhibitory concentration (five-species MIC), microplate turbidity test
Experimental: Test solutions containing these microorganisms were prepared as follows: the bacteria were precultured on SCD (soybean casein digest) liquid medium and the yeast and fungus were precultured on glucose agar medium; this was followed in each case by adjustment of the microorganism concentration in the liquids to the level of 10^6 to 10^7 cfu/mL using 0.9% aqueous NaCl solution.
20 μL of each test solution was dispensed onto a microplate; 180 μL of each antimicrobial composition—prepared by the dilution with medium of component (B) and component (C) at the prescribed concentrations given in Table 1 and component (A) at various concentrations was added; and stirring was carried out to provide a mixed solution (the test sample). Component (A), component (B), and component (C) were prepared here so as to provide the prescribed concentrations in mass % in the mixed solutions. Each mixed solution was then cultured as follows: 48 hours in a thermostat at 33° C. for the bacterial mixed solutions; 3 days at 25° C. for the yeast mixed solutions; and 1 week at 25° C. for the fungus mixed solutions. The post-culture turbidity of each mixed solution was observed. For each microorganism, the mixed solutions containing component (A) at the various concentrations, and each blending condition for component (B) or component (C) (each of the mixed solutions), those mixed solutions were identified where turbidity or the presence of colonies/filaments was not seen (i.e., mixed solutions where growth of the test microorganism had been stopped). For each of the five microorganisms, the lowest component (A) concentration in the mixed solutions where growth had been stopped was designated the minimum inhibitory concentration. […] In addition, the antimicrobial activity (enhancement effect) was evaluated also using the numerical MIC values given in those instances where a “+” or “−” is provided.

[2] = system: Escherichia coli (bacteria) ATCC 8739; experiment: minimum inhibitory concentration (MIC), microplate turbidity test; settings: mass % of component (A) (A-4 or A-5); 48 hours at 33° C.; component (B)/(C) at 5%
Experimental: (§1) E. coli: Escherichia coli (bacteria) ATCC 8739 Test solutions containing these microorganisms were prepared by preculture on SCD liquid medium followed by adjusting the microorganism concentration in the liquids to the level of 10^6 to 10^7 cfu/mL using a 0.9% aqueous NaCl solution. 20 μL of each test solution was dispensed onto a microplate; 180 μL of each antimicrobial composition—prepared by the dilution with medium of component (B) and component (C) at the prescribed concentrations and component (A) at various concentrations—was added; and stirring was carried out to provide a mixed solution (the test sample). Component (A), component (B), and component (C) were prepared here so as to provide the prescribed concentrations in mass % in the mixed solutions. Each mixed solution was then cultured for 48 hours in a thermostat at 33° C., after which the turbidity of each mixed solution was observed. […]

[3] = system: Pseudomonas aeruginosa (bacteria) ATCC 9027; experiment: as above; settings: mass % of component (A) (A-4 or A-5); 48 hours at 33° C.; component (B)/(C) at 5%
Experimental: as §1, with “P. aer: Pseudomonas aeruginosa” for “E. coli: Escherichia coli”, “9027” for “8739”

Row | SMILES | MIC (%) E. coli [2] [%] | MIC (%) P. aer [3] [%] | also measured
1 | CCCCC(CC)COCC(O)CO (stereo not shown) [Comp. Ex. 1, 2-ethylhexyl glyceryl ether] | – | – | five-species MIC (%) ([1]; Table 1, mass % of component (A) A-1 at which growth of all five microorganisms stopped, component (B)/(C) at prescribed %): 1.00+ %
2 | CCCCCCCCOCC(O)CO (stereo not shown) [Comp. Ex. 5, octyl glyceryl ether] | – | – | five-species MIC (%) ([1]; Table 2, mass % of component (A) A-2 at which growth of all five microorganisms stopped, component (B)/(C) at prescribed %): 0.50+ %
3 | OCC(O)COC1CCCCC1 (stereo not shown) [Comp. Ex. 9, cyclohexyl glyceryl ether] | – | – | five-species MIC (%) ([1]; Table 3, mass % of component (A) A-3 at which growth of all five microorganisms stopped, component (B) at prescribed %): 3.00%
4 | CCCCCCC(O)CO (stereo not shown) [Comp. Ex. 10, 1,2-octanediol] | 0.13 | 0.38 | –
5 | CCCCCCOCC(O)CO (stereo not shown) [compound 14, hexyl glyceryl ether] | 0.25 | 0.75 | –
